In PMC10726358 (Journal of Medicinal Chemistry, 2023):

Columns and labels:
[1] = biological target: T1, Monoamine Oxidase A (Homo sapiens, UniProt P21397); assay: Cross screening: Monoamine Oxidase A antagonist; format: biochemical
T1 construct: purchased GSK enhanced cross-screening panel (in-house)

[2] = biological target: T2, SERT (Homo sapiens, UniProt P31645); assay: Cross screening: SERT blocker; format: biochemical
T2 construct: purchased GSK enhanced cross-screening panel (in-house)

[3] = biological target: hERG (Homo sapiens, UniProt Q12809); assay: Cross screening: hERG blocker
[4] = biological target: T3, BRD2 BD2 (Homo sapiens, UniProt P25440); assay: BRD2 BD2 TR-FRET assay; format: binding
T3 construct: BRD2 BD2; purchased DiscoverX
T3 sequence (P25440 344-453 limits assumed): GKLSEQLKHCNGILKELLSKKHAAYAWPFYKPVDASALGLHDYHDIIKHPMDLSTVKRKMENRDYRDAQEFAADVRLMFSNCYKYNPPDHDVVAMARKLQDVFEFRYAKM
Description: (§1) The BRD4 BD1/BD2 TR-FRET assay had been used routinely for this optimization work, and in order to better understand the BET BD1 domain selectivity profile, 31 was tested in TR-FRET BRD2, BRD3, and BRDT assays.
(§2) All TR-FRET and hWB cytokine assays have been described previously.[54]

[5] = biological target: T4, OPRK1 (Homo sapiens, UniProt P41145); assay: Cross screening: OPRK1 Agonist; format: biochemical
T4 construct: purchased GSK enhanced cross-screening panel (in-house)

[6] = biological target: T5, BRD7 (Homo sapiens, UniProt Q9NPI1); assay: BROMOscan BRD7; format: binding
T5 construct: ≥2000-fold selectivity over all 20 non-BET bromodomains tested; purchased DiscoverX
T5 sequence (Q9NPI1 131-235 limits assumed): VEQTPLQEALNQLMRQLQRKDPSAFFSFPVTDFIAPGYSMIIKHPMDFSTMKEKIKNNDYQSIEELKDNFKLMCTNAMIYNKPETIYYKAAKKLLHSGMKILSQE
Description: as §1
(§3) [52] BROMOscan recombinant protein binding assays were carried out at DiscoverX. (accessed April 4, 2023).

[7] = Artificial membrane permeability assay; details: PAMPA
Description: as §1
ChromatographicLogD at pH 7.4, artificial membrane permeability, CLND solubility, and CAD solubility were measured using published protocols.[55]

[8] = biological target: T6, 5-HT3 (Homo sapiens, UniProt P46098); assay: Cross screening: 5-HT3 antagonist; format: biochemical
T6 construct: purchased GSK enhanced cross-screening panel (in-house)
T6 sequence (P46098 24-478): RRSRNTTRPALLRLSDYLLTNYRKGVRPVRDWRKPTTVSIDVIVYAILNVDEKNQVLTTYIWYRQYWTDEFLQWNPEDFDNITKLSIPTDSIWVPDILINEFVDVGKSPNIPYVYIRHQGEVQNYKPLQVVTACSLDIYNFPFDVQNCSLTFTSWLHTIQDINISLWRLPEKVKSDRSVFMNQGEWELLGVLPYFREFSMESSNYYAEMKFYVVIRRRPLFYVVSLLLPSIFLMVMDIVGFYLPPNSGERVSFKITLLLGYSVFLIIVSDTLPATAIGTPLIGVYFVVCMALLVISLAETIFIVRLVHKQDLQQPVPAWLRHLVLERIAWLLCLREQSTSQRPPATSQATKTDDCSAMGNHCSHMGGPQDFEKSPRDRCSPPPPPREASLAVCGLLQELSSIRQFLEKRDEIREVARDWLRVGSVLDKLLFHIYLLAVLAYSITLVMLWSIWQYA

[9] = biological target: T7, BRD3 BD1 (Homo sapiens, UniProt Q15059); assay: BRD3 BD1 TR-FRET assay; format: binding
T7 construct: BRD3 BD1; purchased DiscoverX
T7 sequence (Q15059 34-140 limits assumed): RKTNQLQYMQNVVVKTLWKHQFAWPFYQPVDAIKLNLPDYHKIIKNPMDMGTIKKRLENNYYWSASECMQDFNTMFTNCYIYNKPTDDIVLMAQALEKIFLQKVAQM
Description: as §1, §2

[10] = biological target: T8, BRPF3 (Homo sapiens, UniProt Q9ULD4); assay: BROMOscan BRPF3; format: binding
T8 construct: ≥2000-fold selectivity over all 20 non-BET bromodomains tested; purchased DiscoverX
T8 sequence (Q9ULD4 589-693 limits assumed): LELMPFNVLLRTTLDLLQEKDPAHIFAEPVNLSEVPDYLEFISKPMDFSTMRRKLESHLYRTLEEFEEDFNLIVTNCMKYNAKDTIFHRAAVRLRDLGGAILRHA
Description: as §1, §3

[11] = biological target: T9, ATAD2B (Homo sapiens, UniProt Q9ULI0); assay: BROMOscan ATAD2B; format: binding
T9 construct: ≥2000-fold selectivity over all 20 non-BET bromodomains tested; purchased DiscoverX
Description: as §1, §3

[12] = biological target: T10, BRD4 BD2 (Homo sapiens, UniProt O60885); assay: BROMOscan BRD4 BD2; format: binding
T10 construct: BRD4 BD2; purchased DiscoverX
Description: as §1, §3

[13] = system: 12 multiplex human primary-cell-based assays; assay: BioMAP Diversity PLUS platform
Description: The X-axis lists the quantitative protein-based biomarker readouts measured in each system. The Y-axis represents a log-transformed ratio of the biomarker readouts for the drug-treated sample (n = 1) over vehicle controls (n ≥ 6). […] Biomarker key activities are described as modulated if these activities increase in some systems but decrease in others.
31 was added 1 h before stimulation of the cells and was present during the entire incubation period of the assays.

[14] = biological target: T11, BRPF1 (Homo sapiens, UniProt P55201); assay: BROMOscan BRPF1; format: binding
T11 construct: ≥2000-fold selectivity over all 20 non-BET bromodomains tested; purchased DiscoverX
Description: as §1, §3

[15] = biological target: T12, PDE4B (Homo sapiens, UniProt Q07343); assay: Cross screening: PDE4B antagonist; format: biochemical
T12 construct: purchased GSK enhanced cross-screening panel (in-house)

[16] = system: BET BD1; assay: BET family BD1/BD2 profiling (TR-FRET, BROMOscan); format: binding, human
Description: as §1, §2, §3

[17] = biological target: T13, ATAD2A (Homo sapiens, UniProt Q6PL18); assay: BROMOscan ATAD2A; format: binding
T13 construct: ≥2000-fold selectivity over all 20 non-BET bromodomains tested; purchased DiscoverX
T13 sequence (Q6PL18 980-1092 limits assumed): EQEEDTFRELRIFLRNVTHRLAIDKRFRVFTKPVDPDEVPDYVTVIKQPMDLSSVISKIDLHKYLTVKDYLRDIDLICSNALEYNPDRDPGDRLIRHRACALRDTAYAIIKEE
Description: as §1, §3

[18] = biological target: T14, Aurora B (Homo sapiens, UniProt Q96GD4); assay: Cross screening: Aurora B inhibitor; format: biochemical
T14 construct: purchased GSK enhanced cross-screening panel (in-house)

[19] = biological target: KCNQ1 (Homo sapiens, UniProt P51787); assay: Cross screening: KCNQ1 blocker
KCNQ1, sequence (P51787 whole entry): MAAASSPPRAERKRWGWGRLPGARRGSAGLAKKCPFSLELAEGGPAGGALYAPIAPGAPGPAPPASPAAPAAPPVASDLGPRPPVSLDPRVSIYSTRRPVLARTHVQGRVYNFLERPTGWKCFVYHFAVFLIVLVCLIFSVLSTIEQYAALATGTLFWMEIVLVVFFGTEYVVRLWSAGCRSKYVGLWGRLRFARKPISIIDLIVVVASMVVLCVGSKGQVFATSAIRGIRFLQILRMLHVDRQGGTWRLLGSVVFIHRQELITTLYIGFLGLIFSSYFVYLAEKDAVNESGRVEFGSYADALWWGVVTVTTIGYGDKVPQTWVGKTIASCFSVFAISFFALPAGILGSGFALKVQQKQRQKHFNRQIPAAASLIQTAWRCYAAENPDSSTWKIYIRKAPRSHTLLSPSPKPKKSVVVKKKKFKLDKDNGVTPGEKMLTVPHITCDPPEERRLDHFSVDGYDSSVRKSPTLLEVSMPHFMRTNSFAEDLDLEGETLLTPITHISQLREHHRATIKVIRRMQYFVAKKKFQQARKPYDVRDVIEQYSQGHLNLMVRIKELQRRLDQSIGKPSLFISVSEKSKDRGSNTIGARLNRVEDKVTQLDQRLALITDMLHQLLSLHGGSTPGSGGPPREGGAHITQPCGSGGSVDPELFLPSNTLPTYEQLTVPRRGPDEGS

[20] = biological target: T15, OPRM1 (Homo sapiens, UniProt P35372); assay: Cross screening: OPRM1 Agonist; format: biochemical
T15 construct: purchased GSK enhanced cross-screening panel (in-house)

[21] = biological target: BRD3 BD2 (Homo sapiens, UniProt Q15059); assay: BRD3 BD2 TR-FRET assay; format: binding
BRD3 BD2, sequence (Q15059 306-415 limits assumed): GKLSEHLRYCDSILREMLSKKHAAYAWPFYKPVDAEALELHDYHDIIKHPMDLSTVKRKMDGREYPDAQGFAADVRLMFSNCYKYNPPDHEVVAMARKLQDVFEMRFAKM
Description: as §1, §2

[22] = biological target: T16, CB1 (Homo sapiens, UniProt P21554); assay: Cross screening: CB1 Agonist; format: biochemical
T16 construct: purchased GSK enhanced cross-screening panel (in-house)

[23] = biological target: T17, Cyclooxygenase 2 (COX-2) (Homo sapiens, UniProt P35354); assay: Cross screening: Cyclooxygenase 2 (COX-2) antagonist; format: biochemical
T17 construct: purchased GSK enhanced cross-screening panel (in-house)

[24] = biological target: T18, 5-HT1B (Homo sapiens, UniProt P28222); assay: Cross screening: 5-HT1B Agonist; format: biochemical
T18 construct: purchased GSK enhanced cross-screening panel (in-house)
T18 sequence (P28222 whole entry): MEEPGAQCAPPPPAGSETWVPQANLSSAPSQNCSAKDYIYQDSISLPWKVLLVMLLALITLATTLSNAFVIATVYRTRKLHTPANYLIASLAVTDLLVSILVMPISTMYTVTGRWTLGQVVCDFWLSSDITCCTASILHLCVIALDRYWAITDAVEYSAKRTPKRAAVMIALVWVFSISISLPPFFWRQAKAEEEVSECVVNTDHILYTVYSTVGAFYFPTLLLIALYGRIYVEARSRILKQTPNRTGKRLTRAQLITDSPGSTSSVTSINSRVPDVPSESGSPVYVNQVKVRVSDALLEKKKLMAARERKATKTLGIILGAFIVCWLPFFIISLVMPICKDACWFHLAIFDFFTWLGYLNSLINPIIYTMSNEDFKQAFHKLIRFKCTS

[25] = biological target: T19, 5-HT2C (Homo sapiens, UniProt P28335); assay: Cross screening: 5-HT2C antagonist; format: biochemical
T19 construct: purchased GSK enhanced cross-screening panel (in-house)

[26] = biological target: T20, M2 (CHRM2) (Homo sapiens, UniProt P08172); assay: Cross screening: M2 (CHRM2) Human Ag; format: biochemical
T20 construct: purchased GSK enhanced cross-screening panel (in-house)

[27] = biological target: T21, Beta2 Adrenoceptor (Homo sapiens, UniProt P07550); assay: Cross screening: Beta2 Adrenoceptor Human Agonist; format: biochemical
T21 construct: purchased GSK enhanced cross-screening panel (in-house)

[28] = pKa of the basic amine
[29] = biological target: T22, NET (Homo sapiens, UniProt P23975); assay: Cross screening: NET blocker; format: biochemical
T22 construct: purchased GSK enhanced cross-screening panel (in-house)
T22 sequence (P23975 whole entry): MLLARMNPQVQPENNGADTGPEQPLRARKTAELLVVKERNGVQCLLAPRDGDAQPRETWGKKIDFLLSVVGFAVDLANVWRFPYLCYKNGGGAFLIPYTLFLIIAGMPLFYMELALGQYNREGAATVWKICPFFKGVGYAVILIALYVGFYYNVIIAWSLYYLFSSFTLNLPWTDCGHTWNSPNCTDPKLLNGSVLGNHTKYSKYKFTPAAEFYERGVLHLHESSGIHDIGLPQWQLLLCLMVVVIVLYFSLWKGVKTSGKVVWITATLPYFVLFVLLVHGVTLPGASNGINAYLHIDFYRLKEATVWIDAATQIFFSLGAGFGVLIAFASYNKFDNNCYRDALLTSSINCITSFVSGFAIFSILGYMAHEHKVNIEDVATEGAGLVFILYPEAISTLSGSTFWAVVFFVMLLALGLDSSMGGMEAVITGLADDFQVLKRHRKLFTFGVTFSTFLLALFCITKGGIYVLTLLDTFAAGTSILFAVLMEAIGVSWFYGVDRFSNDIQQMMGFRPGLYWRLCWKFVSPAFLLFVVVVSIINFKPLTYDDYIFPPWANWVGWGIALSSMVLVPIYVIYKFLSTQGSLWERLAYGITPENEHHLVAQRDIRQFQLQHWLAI

[30] = biological target: T23, EP300 (Homo sapiens, UniProt Q09472); assay: BROMOscan EP300; format: binding
T23 construct: The broader non-BET bromodomain selectivity was also determined in the BROMOscan assay, with the closest off-target being EP300; purchased DiscoverX
T23 sequence (Q09472 1049-1156 limits assumed): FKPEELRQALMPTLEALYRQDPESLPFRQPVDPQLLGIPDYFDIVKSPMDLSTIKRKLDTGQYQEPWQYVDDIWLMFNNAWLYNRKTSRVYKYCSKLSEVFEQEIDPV
Description: as §1, §3

[31] = system: Phospholipoidosis induction; assay: Cross screening: Phospholipoidosis induction
[32] = biological target: T24, Alpha 1 nAChR (Homo sapiens, UniProt P02708+P07510+Q07001); assay: Cross screening: Alpha 1 nAChR Agonist; format: biochemical
T24 construct: purchased GSK enhanced cross-screening panel (in-house)
T24 sequence (P02708 21-457): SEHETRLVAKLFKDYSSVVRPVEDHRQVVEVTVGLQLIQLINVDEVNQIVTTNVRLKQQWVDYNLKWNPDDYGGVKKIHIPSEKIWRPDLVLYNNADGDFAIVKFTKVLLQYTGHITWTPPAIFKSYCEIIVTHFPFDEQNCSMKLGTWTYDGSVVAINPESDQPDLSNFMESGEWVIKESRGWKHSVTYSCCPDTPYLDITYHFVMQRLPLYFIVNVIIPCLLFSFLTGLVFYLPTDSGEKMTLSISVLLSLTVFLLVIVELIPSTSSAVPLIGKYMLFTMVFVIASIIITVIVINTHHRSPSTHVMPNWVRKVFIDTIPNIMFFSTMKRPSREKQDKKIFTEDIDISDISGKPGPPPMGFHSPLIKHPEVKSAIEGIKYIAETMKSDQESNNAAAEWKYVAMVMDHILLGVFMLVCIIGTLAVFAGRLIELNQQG
T24 sequence (P11230 24-501 partner): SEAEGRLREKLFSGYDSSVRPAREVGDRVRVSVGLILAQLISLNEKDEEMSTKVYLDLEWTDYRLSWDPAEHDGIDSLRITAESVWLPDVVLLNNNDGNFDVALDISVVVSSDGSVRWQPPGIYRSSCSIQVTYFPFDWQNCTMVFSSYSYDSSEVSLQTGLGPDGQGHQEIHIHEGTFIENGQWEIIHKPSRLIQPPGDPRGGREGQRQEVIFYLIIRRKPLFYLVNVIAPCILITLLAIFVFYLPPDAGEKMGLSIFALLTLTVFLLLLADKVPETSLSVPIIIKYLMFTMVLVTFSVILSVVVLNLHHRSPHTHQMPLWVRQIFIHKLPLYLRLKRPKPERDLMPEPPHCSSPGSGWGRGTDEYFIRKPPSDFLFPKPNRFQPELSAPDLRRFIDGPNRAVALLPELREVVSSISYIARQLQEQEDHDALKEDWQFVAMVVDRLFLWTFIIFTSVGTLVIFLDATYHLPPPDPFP
T24 sequence (Q07001 22-517): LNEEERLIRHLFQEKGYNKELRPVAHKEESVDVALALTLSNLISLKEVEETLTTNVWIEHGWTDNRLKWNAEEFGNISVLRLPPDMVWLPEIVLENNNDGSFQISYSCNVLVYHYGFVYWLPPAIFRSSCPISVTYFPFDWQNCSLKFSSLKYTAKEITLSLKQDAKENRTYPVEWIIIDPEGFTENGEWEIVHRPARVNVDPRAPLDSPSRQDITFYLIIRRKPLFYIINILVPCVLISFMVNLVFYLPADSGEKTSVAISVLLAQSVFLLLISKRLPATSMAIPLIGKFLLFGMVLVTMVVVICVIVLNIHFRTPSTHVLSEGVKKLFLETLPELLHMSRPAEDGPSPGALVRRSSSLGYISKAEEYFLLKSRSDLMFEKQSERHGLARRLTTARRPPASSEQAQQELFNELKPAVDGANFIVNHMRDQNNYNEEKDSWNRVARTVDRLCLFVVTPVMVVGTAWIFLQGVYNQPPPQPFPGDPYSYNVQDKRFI
T24 sequence (P07510 23-517): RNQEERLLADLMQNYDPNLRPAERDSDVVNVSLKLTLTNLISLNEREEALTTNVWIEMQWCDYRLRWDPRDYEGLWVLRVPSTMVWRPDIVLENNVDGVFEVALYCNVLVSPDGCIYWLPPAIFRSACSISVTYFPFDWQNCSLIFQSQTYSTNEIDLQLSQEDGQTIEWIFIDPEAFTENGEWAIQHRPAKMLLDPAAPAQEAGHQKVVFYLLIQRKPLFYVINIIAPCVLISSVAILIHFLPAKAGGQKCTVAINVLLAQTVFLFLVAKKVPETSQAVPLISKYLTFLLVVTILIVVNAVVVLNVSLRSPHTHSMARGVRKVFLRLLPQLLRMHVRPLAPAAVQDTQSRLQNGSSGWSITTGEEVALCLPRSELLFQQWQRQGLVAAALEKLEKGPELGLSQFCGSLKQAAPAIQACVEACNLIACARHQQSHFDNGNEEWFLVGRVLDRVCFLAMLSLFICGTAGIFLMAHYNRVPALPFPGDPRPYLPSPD

Cc1cc(-c2nc3ccccc3n2C[C@@H]2CCCN(C(=O)C3CCN(C(C)C)CC3)C2)cn(C)c1=O [Compound 31, (S)-5-(1-((1-(1-Isopropylpiperidine-4-carbonyl)piperidin-3-yl)methyl)-1H-benzo [d]imidazole-2-yl)-1,3-dimethylpyridin-2(1H)-one]
pXC50 Monoamine Oxidase A antagonist [1]: < 4.0 | pXC50 SERT blocker [2]: < 4.0 | pXC50 hERG blocker [3]: < 4.3 | BRD2 BD2 TR-FRET pIC50 [4]: 5.4 | pXC50 OPRK1 Agonist [5]: < 4.0 | Kd [6]: > 31.6 µM | Papp [7]: < 0.3 ×10⁻⁶ cm/s | pXC50 5-HT3 antagonist [8]: < 4.3 | BRD3 BD1 TR-FRET pIC50 [9]: 7.7 | fold selectivity BRD3 BD1 over BD2 ([9]; TR-FRET): 400 fold | Kd [10]: > 31.6 µM | Kd [11]: > 31.6 µM | BROMOscan pKd BRD4 BD2 [12]: 5.6 | BioMAP immune-modulatory biomarker levels ([13]; 10 μM to 160 nM, MCP-1, IL-8, IL-1, IL-10, M-CSF, IL-6): decreases | BioMAP antiproliferative effects ([13]; 10 μM to 160 nM, human primary T cells, coronary artery smooth muscle cells, endothelial cells, fibroblasts): antiproliferative effects | BioMAP cytotoxicity ([13]; 10 μM, […], 630 nM, 160 nM): No cytotoxicity was observed | Kd [14]: 15.8 µM | pXC50 PDE4B antagonist [15]: < 4.0 | BD1 domain selectivity over BD2 across the four isoforms ([16]; TR-FRET BRD2, BRD3, BRD4, BRDT): at least 400 fold | BET BD1 domain selectivity ([16]; depending on protein and assay format): 300–1000 fold | Kd [17]: > 31.6 µM | pXC50 Aurora B inhibitor [18]: < 4.5 | pXC50 KCNQ1 blocker [19]: < 4.6 | pXC50 OPRM1 Agonist [20]: < 4.0 | BRD3 BD2 TR-FRET pIC50 [21]: 5.1 | pXC50 CB1 Agonist [22]: < 4.0 | pXC50 Cyclooxygenase 2 (COX-2) antagonist [23]: < 4.0 | pXC50 5-HT1B Agonist [24]: < 4.0 | pXC50 5-HT2C antagonist [25]: < 4.0 | pXC50 M2 (CHRM2) Human Ag [26]: < 4.3 | pXC50 Beta2 Adrenoceptor Human Agonist [27]: < 4.0 | pKa [28]: 9.6 | pXC50 NET blocker [29]: < 4.0 | BROMOscan pKd EP300 [30]: 5.0 | fold selectivity over EP300 ([30]; BROMOscan, compared to BRD4 BD1 pKd 8.1): 1200 fold | pXC50 Phospholipoidosis induction [31]: < 4 | pXC50 Alpha 1 nAChR Agonist [32]: < 4.2
